Assay results published in ChEMBL document CHEMBL1201862, “PubChem BioAssay data set” (2004).
The source made the active and inactive calls.

Key:
[1] = target: Inward rectifier potassium channel 2 (Mus musculus, UniProt P35561); test: Manual electrophysiological patch clamp assay for SAR compounds that inhibit/block inward-rectifying potassium ion channel Kir2.1. [Related pubchem assays: 1843 (Summary assay for Kir2.1 inhibitor assays.), 1672 (Primary HTS of 305616 compounds where 2592 were identified as active.)]; type: functional
Cytochrome P450 2C9 = Cytochrome P450 2C9 (Homo sapiens, UniProt P11712); details: Potency
Cytochrome P450 2D6 = Cytochrome P450 2D6 (Homo sapiens, UniProt P10635); test: qHTS Assay for Inhibitors and Substrates of Cytochrome P450 2D6. [Related pubchem assays: 410 ]; type: ADME; details: read-out: Potency
[2] = target: Sphingosine 1-phosphate receptor 2 (Homo sapiens, UniProt O95136); test: Dose Response Cell Based Assay for Agonists of the S1P2 Receptor of Purchased Analogues. [Related pubchem assays: 729, 843, 854, 736 ]; type: functional
[3] = Luminescence Cell-Based Dose Retest to Confirm Inhibitors of Cancer Stem Cells. [Related pubchem assays (depositor defined):AID2717, AID2721]; type: functional; details: Homo sapiens
[4] = target: Transitional endoplasmic reticulum ATPase (Homo sapiens, UniProt P55072, C522A); test: Luminescence counterscreen assay for p97 inhibitors: dose response biochemical high throughput screening assay to identify inhibitors of the C522A mutant p97 ATPase: synthesized compounds. [Related pubchem assays: 1481, 1517, 1551 ]
[5] = target: Transitional endoplasmic reticulum ATPase (Homo sapiens, UniProt P55072); test: Luminescence dose response biochemical high throughput screening assay for inhibitors of the p97 ATPase: synthesized compounds. [Related pubchem assays: 1481, 1517 ]
[6] = target: Lysosomal acid glucosylceramidase (Homo sapiens, UniProt P04062); test: Dose response cell-based high throughput screening assay to identify enhancers of beta-glucosidase activity. [Related pubchem assays: 784 ]; type: functional
[7] = target: T1, Induced myeloid leukemia cell differentiation protein Mcl-1 (Homo sapiens, UniProt Q07820); type: functional
Fatty acid synthase [8] = target: T2, Fatty acid synthase (Homo sapiens, UniProt P49327); test: inhibition of human FAS-TE enzyme activity – biochemical, kinetic fluorescence intensity, dose response (AID 624326); type: functional;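 note: rate of fluorescence rise from hydrolysis of a fluorogenic O-methyl fluorescein ester substrate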
Fatty acid synthase [9] = target: T2, Fatty acid synthase; test: inhibition of human FAS-TE enzyme activity – biochemical, endpoint fluorescence intensity, uHTS hits, dose response (AID 624327); type: functional;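 note: fluorescence from hydrolysis of an O-methyl fluorescein acyl ester substrate by the enzyme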
Bcl-2-like protein 1 = Bcl-2-like protein 1 (Homo sapiens, UniProt Q07817); test: blockers of BCLXL peptide binding – biochemical, fluorescence polarization, 1536-well, selectivity assay for MCL1 inhibitor project, dose response (AID 2218)
Genome polyprotein = Genome polyprotein (dengue virus type 2, UniProt P29990); test: flavivirus cap methylation enzyme inhibition – biochemical, confirmation dose response, primary screen (AID 588689); type: functional
[10] = target: T1, Induced myeloid leukemia cell differentiation protein Mcl-1; test: blockers of MCL1 binding to BIM peptide – biochemical, fluorescence polarization, BIM-BH3 peptide, 1536-well, dose response (AID 2217)
[11] = target: 72 kDa type IV collagenase (Homo sapiens, UniProt P08253); test: Dose Response validation of uHTS RPN11 inhibitor hits using a MMP-2 Fluorescence assay.; type: functional
[12] = target: 26S proteasome non-ATPase regulatory subunit 14 (Homo sapiens, UniProt O00487); test: inhibition of proteasome subunit RPN11 – biochemical, fluorescence polarization, uHTS hits, confirmation (AID 602368); type: functional
Prothrombin = Prothrombin (Bos taurus, UniProt P00735); test: thrombin protease inhibitors – biochemical, fluorescence polarization, uHTS hits, dose response (AID 602369); type: functional
[13] = mitochondrial function rescue without frataxin homolog – Friedreich's ataxia, plus single-dose screen, dose response (AID 1465); type: functional;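 note: yeast depleted of Yfh1p frataxin homolog grown on glycerol needing respiration; WST-1 tetrazolium dye reduction as measure of cellular dehydrogenase metabolic activity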
[14] = luciferase reporter signal reduction – luminescence, H4-C neuroglioblastoma cells, dose response (AID 2458); type: functional, cell-based;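 note: H4 neuroglioblastoma cells stably carrying a luciferase reporter gene fusion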
[15] = alpha-synuclein stem-loop translation blockers – luminescence, H4 neuroglioblastoma cells, dose confirmation, confirmation (AID 2454); type: functional, cell-based;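 note: H4 neuroglioblastoma cells carrying an alpha-synuclein 5'UTR luciferase reporter; potency for inhibition of the luciferase signal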
BJ [16] = test: cells; type: functional, cell-based; details: Homo sapiens
[17] = DRD fibroblast viability loss – cell-based, non-viral oncogenic, luminescence, dose response (AID 1934); type: functional; details: Homo sapiens
cells = type: functional, cell-based
[18] = alpha-synuclein stem-loop luciferase translation blockers – H4 neuroglioma cells, luminescence, confirmation (AID 1988); type: functional, cell-based
BJ [19] = test: BJ-TERT fibroblast viability loss – cell-based, RAS-independent, luminescence, dose response (AID 1933); type: functional; details: Homo sapiens
BJ [20] = test: BJ-TERT-LT-ST fibroblast viability loss – cell-based, RAS-independent, luminescence, dose response (AID 1935); type: functional; details: Homo sapiens;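 note: BJ fibroblasts immortalized with TERT plus LT and ST oncogenes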

T1 sequence (Q07820 whole entry): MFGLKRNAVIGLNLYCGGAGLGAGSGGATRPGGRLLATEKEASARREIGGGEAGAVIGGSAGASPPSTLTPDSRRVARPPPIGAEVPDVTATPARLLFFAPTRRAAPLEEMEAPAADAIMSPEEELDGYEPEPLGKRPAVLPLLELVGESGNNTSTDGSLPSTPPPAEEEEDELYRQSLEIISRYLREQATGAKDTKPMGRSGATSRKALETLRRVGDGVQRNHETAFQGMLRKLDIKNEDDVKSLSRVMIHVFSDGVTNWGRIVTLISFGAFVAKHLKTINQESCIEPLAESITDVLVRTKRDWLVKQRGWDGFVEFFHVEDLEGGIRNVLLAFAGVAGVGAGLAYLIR
T2 sequence (P49327 whole entry): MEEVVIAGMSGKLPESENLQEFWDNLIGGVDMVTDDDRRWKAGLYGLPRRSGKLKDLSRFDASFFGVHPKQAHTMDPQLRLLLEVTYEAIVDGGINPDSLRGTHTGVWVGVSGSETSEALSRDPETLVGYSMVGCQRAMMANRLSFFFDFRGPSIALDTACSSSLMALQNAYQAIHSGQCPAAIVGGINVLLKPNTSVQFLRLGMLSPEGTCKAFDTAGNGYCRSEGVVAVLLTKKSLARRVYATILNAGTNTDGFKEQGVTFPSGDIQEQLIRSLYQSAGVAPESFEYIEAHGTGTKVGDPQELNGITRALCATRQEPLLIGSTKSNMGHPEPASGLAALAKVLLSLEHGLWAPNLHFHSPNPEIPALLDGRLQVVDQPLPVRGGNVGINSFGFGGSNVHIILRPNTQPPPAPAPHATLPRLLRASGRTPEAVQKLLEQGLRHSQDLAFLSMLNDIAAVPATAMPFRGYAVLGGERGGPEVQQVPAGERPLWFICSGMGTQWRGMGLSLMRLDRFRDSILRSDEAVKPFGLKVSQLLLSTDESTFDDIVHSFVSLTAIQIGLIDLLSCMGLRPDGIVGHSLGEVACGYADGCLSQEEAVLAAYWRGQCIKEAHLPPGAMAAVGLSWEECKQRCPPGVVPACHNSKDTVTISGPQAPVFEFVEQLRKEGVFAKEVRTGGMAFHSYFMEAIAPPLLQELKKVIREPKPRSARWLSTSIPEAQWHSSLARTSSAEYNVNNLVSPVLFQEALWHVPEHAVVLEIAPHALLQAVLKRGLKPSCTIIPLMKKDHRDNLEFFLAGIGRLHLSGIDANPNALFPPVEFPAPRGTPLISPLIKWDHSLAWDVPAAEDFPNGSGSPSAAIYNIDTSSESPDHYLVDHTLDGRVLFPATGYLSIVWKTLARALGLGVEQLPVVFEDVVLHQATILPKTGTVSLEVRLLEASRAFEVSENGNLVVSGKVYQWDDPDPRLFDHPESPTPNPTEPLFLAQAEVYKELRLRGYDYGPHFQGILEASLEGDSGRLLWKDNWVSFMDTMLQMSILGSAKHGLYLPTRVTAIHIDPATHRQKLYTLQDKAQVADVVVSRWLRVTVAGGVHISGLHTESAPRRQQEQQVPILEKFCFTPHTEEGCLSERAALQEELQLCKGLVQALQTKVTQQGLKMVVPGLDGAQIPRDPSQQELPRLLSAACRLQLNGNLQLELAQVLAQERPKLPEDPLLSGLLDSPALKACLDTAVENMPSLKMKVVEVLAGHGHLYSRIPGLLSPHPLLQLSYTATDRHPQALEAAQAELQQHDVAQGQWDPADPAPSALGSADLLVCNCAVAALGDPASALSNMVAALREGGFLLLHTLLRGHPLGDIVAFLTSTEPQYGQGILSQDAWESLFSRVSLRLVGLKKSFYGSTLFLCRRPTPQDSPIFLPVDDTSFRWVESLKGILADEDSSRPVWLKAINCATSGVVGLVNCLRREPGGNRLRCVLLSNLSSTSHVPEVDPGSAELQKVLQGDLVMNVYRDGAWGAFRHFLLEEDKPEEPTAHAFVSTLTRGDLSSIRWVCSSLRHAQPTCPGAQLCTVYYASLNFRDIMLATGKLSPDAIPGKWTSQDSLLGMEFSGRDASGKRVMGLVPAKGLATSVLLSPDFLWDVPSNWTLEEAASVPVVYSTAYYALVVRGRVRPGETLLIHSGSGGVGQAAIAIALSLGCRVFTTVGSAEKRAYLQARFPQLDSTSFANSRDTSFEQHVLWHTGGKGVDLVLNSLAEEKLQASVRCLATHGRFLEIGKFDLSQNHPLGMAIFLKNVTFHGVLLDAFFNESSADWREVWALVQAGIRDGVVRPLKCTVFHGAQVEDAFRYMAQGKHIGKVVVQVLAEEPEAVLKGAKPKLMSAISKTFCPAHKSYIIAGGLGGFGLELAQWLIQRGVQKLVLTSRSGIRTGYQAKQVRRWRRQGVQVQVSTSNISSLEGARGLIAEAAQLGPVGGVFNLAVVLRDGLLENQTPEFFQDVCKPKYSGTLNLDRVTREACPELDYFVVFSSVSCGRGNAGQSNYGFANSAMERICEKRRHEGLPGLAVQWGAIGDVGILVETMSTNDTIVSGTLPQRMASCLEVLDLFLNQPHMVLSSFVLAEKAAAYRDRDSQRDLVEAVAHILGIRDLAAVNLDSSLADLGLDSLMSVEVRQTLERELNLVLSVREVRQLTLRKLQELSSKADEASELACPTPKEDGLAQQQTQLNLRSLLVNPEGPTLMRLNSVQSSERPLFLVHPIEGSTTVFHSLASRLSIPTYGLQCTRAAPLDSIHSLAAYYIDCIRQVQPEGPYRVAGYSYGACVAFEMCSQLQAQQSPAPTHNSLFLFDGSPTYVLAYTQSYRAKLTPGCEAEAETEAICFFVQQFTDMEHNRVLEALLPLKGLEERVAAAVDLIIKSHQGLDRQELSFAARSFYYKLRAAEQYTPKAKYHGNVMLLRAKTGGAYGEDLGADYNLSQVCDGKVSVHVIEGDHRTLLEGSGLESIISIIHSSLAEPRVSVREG
Chain of Transitional endoplasmic reticulum ATPase (Homo sapiens, UniProt P55072, C522A) (P55072 2-806 C522A limits assumed): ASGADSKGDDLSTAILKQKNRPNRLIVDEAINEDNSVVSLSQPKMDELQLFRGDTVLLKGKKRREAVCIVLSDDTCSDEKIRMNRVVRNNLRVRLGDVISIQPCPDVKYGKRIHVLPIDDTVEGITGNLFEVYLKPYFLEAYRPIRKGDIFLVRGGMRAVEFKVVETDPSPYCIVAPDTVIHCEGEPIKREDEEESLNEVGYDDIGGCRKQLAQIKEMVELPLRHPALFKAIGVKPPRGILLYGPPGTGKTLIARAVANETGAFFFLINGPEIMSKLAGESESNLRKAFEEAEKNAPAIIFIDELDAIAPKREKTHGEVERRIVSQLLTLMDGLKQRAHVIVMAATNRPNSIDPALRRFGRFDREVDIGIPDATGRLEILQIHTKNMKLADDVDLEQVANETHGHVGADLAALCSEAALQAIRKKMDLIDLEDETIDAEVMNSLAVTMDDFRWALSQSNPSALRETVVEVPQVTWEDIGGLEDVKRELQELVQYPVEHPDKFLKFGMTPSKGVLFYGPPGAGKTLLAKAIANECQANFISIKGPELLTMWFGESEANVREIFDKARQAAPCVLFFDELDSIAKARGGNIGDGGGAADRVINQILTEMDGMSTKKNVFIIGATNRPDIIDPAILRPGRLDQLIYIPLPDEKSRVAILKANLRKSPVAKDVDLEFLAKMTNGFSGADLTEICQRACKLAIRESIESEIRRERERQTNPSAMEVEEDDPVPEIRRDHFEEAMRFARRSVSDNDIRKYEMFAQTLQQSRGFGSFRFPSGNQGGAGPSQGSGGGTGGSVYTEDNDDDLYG
Chain of Cytochrome P450 2C9 (P11712 whole entry): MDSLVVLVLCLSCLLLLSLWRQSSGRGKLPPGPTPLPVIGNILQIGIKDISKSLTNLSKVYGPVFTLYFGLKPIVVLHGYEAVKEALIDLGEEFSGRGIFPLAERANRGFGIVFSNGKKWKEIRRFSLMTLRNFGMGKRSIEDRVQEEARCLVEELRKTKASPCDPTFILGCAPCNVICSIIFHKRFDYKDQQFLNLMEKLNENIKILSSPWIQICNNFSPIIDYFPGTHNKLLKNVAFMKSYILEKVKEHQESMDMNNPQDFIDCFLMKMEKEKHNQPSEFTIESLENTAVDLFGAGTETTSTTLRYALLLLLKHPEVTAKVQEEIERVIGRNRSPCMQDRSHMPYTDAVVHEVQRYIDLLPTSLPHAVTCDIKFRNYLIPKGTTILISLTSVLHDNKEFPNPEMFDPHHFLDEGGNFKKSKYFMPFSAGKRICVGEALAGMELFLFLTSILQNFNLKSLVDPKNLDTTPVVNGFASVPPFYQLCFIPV
Chain of Sphingosine 1-phosphate receptor 2 (O95136 whole entry): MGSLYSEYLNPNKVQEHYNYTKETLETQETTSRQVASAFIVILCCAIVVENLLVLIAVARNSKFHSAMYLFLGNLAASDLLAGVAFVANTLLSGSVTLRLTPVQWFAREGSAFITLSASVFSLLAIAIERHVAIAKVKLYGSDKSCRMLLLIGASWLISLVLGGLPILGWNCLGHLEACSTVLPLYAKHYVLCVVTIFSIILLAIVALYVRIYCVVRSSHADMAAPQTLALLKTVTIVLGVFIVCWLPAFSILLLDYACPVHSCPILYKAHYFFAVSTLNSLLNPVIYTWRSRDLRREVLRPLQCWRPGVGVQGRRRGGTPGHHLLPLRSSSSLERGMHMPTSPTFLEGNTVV
Chain of Lysosomal acid glucosylceramidase (P04062 whole entry): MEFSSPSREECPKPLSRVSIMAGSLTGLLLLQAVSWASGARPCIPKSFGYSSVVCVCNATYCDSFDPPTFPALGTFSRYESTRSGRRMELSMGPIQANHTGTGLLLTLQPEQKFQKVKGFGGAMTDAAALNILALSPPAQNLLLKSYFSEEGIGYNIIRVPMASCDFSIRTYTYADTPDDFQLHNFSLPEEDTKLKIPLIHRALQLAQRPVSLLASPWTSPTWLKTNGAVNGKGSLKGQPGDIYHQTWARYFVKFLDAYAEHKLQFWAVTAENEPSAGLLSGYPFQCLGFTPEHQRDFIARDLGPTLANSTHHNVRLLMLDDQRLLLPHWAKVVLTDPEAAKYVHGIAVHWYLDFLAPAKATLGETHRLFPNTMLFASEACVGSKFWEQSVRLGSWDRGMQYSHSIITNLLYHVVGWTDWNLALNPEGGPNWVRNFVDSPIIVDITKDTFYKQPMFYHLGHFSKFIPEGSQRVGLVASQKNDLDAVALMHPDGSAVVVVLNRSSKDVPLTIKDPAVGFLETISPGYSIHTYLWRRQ

## COc1ccc(CNCc2cc(F)cc(F)c2)cc1
[1]
  IC50: 7.22 µM (active)

## CC(=O)OC(C)(C)/N=N\c1ccc(Br)cc1
Cytochrome P450 2C9
  AC50: 5.01 µM (inconclusive)
Cytochrome P450 2D6
  AC50: 3.16 µM (inconclusive)

## Cc1cc(C(=O)CN2C(=O)C(=O)N(Cc3ccccc3)C2=O)c(C)n1Cc1ccccc1
[2]
  EC50: > 30 µM (not active)
[3]
  AC50: 2.54 µM (active)

## N#C/C=C/c1ccccc1Nc1ccc(S(N)(=O)=O)cc1
[4]
  IC50: > 50 µM (not active)
[5]
  IC50: > 50 µM (not active)

## N#Cc1c2n(c3c(=O)n(Cc4ccccc4Cl)cnc13)CCCCC2
[6]
  EC50: > 50 µM (not active)

## O=C(O)COc1ccccc1C(Nc1ccccn1)c1cc(Cl)c2cccnc2c1O (stereo unspecified)
[7]
  IC50: 9.35 µM (active)
Fatty acid synthase [8]
  IC50: 14.3 µM (active)
Fatty acid synthase [9]
  IC50: 18.5 µM (active)
Bcl-2-like protein 1
  IC50: > 109 µM (not active)
Genome polyprotein
  IC50: 43.3 µM (active)
[10]
  IC50: 1.74 µM (active)

## CC(=O)N1CCc2cc(NN=C3C(=O)CC(C)(C)CC3=O)ccc21
[11]
  IC50: > 100 µM (inactive)
[12]
  IC50: 35.5 µM (active)
Prothrombin
  IC50: 31.5 µM (active)
[13]
  EC50: > 100 µM (active)

## CCOc1ccc(S(=O)(=O)Nc2cc(OC)ccc2OC)cc1
[14]
  EC50: 0.553 µM (active)
[15]
  EC50: 0.947 µM (active)
BJ [16]
  EC50: 21.2 µM (active)
[17]
  EC50: 0.965 µM (inconclusive)
cells
  EC50: 0.839 µM (active)
[18]
  EC50: < 0.1 µM (active)
BJ [19]
  EC50: 0.451 µM (active)
BJ [20]
  EC50: 0.495 µM (inconclusive)
